Measured values taken from publication PMC6478789, “A chemical toolbox for the study of bromodomains and epigenetic signaling” (Nature Communications, 2019).
Read-outs that look alike come from different tables or passages of the source.

How the values were obtained:
ATAD2A = molecular target: T1, ATAD2A (Homo sapiens, UniProt Q6PL18); experiment: BROMOscan ligand-binding assay
T1 sequence (Q6PL18 980-1092 limits assumed): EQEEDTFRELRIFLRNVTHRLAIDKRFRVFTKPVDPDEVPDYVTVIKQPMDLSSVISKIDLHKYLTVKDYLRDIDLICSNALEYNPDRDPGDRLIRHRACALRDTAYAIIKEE
From the text: (§6) BROMOscan is a binding assay based on the well-known KINOMEscan technology. This assay measures the binding of a DNA-tagged bromodomain to an immobilized BRD ligand. If an inhibitor is present, it will compete with the bromodomain binding to the immobilized ligand, resulting in reduction of a quantitative PCR (qPCR) signal in a dose-dependent manner.

BAZ2B = molecular target: T2, BAZ2B (Homo sapiens, UniProt Q9UIF8); experiment: BROMOscan ligand-binding assay
T2 sequence (Q9UIF8 2060-2164 limits assumed): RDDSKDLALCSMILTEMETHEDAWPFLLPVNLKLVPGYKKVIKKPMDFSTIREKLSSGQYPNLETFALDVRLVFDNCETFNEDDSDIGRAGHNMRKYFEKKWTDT
From the text: as §6

BRD3(1) = BRD3(1) (Homo sapiens, UniProt Q15059); experiment: BROMOscan ligand-binding assay
Chain of BRD3(1) (Q15059 34-140 limits assumed): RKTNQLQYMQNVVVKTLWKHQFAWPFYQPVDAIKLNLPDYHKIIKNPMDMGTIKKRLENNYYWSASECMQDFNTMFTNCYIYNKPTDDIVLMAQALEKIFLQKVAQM
From the text: as §6

BRD3(2) = BRD3(2) (Homo sapiens, UniProt Q15059); experiment: BROMOscan ligand-binding assay
Chain of BRD3(2) (Q15059 306-415 limits assumed): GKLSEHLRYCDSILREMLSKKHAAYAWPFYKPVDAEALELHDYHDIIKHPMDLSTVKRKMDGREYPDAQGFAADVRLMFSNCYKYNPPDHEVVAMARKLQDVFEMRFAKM
From the text: as §6

BRD4(1) = BRD4(1) (Homo sapiens, UniProt O60885); experiment: BROMOscan ligand-binding assay
From the text: as §6

BRD4(2) = BRD4(2) (Homo sapiens, UniProt O60885); experiment: BROMOscan ligand-binding assay
From the text: as §6

BRD9 = molecular target: T3, BRD9 (Homo sapiens, UniProt Q9H8M2); experiment: BROMOscan ligand-binding assay
T3 sequence (Q9H8M2 136-240 limits assumed): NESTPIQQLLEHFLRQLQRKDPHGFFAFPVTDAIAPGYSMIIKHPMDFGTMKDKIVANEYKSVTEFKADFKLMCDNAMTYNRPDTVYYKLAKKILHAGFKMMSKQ
From the text: as §6

BRPF1 = molecular target: T4, BRPF1 (Homo sapiens, UniProt P55201); experiment: BROMOscan ligand-binding assay
T4 sequence (P55201 628-732 limits assumed): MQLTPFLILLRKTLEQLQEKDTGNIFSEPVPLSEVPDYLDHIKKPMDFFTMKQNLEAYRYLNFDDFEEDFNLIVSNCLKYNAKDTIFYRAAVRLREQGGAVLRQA
From the text: as §6

CREBBP = CREBBP (Homo sapiens, UniProt Q92793); experiment: BROMOscan ligand-binding assay
Chain of CREBBP (Q92793 1085-1192 limits assumed): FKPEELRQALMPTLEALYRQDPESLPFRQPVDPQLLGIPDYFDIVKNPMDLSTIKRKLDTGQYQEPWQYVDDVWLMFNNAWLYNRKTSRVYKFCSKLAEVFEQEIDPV
From the text: as §6

TAF1(2) = molecular target: T5, TAF1(2) (Homo sapiens, UniProt P21675); experiment: BROMOscan ligand-binding assay
T5 sequence (P21675 1519-1628 limits assumed): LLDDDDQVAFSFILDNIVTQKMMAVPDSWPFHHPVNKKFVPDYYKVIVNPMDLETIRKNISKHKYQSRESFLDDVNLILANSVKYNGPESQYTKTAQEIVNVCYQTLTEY
From the text: as §6

BRD2(1,2) = BRD2(1,2) (Homo sapiens, UniProt P25440); experiment: BROMOscan ligand-binding assay
Chain of BRD2(1,2) (P25440 71-455 limits assumed): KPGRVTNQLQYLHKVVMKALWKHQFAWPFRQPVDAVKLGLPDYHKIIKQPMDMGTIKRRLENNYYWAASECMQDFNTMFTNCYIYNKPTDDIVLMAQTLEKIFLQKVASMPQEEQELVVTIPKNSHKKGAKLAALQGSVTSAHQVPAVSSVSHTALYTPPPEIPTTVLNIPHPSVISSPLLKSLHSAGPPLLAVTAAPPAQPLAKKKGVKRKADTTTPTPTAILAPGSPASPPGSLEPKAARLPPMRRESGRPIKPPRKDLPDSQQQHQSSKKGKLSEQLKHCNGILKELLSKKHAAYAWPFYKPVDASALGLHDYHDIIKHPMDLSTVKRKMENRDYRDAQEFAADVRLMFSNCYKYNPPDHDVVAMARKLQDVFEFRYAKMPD
From the text: as §6

BRD4(1,2) = BRD4(1,2) (Homo sapiens, UniProt O60885); experiment: BROMOscan ligand-binding assay
From the text: as §6

BRD4(fl) = BRD4(fl) (Homo sapiens, UniProt O60885); experiment: BROMOscan ligand-binding assay
From the text: as §6

BRDT(1,2) = BRDT(1,2) (Homo sapiens, UniProt Q58F21); experiment: BROMOscan ligand-binding assay
From the text: as §6

GCN5L2 = molecular target: T6, GCN5L2 (Homo sapiens, UniProt Q92830); experiment: BROMOscan ligand-binding assay
T6 sequence (Q92830 728-832 limits assumed): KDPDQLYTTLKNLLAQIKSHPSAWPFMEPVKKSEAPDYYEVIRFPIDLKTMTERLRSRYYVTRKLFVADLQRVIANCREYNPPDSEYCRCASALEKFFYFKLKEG
From the text: as §6

SMARCA2 = SMARCA2 (Homo sapiens, UniProt P51531); experiment: BROMOscan ligand-binding assay
Chain of SMARCA2 (P51531 1-1572 isoform P51531-2): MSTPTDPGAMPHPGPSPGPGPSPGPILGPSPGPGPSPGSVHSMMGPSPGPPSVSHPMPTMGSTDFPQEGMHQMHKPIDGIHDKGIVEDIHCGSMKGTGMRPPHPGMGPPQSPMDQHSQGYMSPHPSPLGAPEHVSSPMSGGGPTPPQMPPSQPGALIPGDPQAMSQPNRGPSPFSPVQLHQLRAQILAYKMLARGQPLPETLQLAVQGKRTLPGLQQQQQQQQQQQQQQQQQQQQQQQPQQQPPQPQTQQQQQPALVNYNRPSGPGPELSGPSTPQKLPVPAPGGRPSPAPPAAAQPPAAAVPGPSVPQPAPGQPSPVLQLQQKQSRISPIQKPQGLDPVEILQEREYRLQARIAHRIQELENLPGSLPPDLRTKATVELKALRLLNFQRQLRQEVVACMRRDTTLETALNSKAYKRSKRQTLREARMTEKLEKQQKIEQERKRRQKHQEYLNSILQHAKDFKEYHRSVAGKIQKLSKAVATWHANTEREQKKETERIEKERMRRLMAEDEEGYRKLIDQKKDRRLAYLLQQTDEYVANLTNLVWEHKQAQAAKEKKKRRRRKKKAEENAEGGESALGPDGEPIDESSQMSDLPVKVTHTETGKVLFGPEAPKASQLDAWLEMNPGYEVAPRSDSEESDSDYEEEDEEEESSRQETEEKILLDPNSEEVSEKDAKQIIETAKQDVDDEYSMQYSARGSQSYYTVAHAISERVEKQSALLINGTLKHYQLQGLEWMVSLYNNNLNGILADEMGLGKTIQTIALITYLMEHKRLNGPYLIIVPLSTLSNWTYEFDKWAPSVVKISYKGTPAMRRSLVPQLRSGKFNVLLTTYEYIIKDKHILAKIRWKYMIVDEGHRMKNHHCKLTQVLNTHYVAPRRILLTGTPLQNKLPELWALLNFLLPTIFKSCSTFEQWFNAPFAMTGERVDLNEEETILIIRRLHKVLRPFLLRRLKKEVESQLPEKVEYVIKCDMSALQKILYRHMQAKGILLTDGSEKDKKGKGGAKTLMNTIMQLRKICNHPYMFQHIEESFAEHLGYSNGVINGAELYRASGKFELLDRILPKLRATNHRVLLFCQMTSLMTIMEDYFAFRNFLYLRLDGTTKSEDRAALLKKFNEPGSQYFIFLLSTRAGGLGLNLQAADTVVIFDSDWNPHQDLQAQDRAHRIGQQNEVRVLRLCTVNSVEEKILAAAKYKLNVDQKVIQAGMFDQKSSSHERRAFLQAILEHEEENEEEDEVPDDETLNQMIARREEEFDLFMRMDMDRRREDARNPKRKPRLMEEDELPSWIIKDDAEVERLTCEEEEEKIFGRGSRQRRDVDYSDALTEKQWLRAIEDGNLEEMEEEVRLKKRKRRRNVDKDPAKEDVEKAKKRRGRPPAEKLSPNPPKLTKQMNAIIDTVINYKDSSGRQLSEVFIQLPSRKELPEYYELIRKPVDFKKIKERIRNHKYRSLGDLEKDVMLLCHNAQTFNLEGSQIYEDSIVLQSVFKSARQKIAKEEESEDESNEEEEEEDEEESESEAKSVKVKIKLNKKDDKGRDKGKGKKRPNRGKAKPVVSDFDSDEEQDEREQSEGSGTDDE
From the text: as §6

53BP1 = 53BP1 (Homo sapiens, UniProt Q12888); experiment: Temperature shift assay (non-BRD reader domains); type: binding; settings: 10µM compound
Chain of 53BP1 (Q12888 1484-1603 limits assumed, species assumed): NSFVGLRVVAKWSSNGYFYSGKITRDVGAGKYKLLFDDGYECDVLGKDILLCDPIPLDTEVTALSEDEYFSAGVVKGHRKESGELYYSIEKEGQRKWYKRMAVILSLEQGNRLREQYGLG
Procedure: (§1) Temperature shift assays have been described by Fedorov et al.[46]. Recombinant protein domains (bromodomain or kinases) at a concentration of 2 μM in 10 mM HEPES, pH 7.5, and 500 mM NaCl were mixed with 10 μM of chemical probes. Temperature-dependent protein unfolding profiles were measured using a Real-Time PCR Mx3005p machine (Stratagene).
(§2) Wu et al., Supplementary figures and tables 14
(§3) Supplementary Table 3: Selectivity screening data (non-BRD reader domains):
(§4) Temperature shift assay data of BRD probes screened against a diver se panel of methyl-lysine
(§5) reader domains. Compounds were screened a concentration of 10 µM. Shown are temperature

BRPF3 = BRPF3 (Homo sapiens, UniProt Q9ULD4); experiment: Temperature shift assay (non-BRD reader domains); type: binding; settings: 10µM compound
Chain of BRPF3 (Q9ULD4 1076-1159 limits assumed, species assumed): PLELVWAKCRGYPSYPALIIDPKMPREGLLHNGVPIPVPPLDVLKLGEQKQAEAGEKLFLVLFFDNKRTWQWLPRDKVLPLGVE
Procedure: as §1, §2, §3, §4, §5

FXR1 = FXR1 (Homo sapiens, UniProt P51114); experiment: Temperature shift assay (non-BRD reader domains); type: binding; settings: 10µM compound
Chain of FXR1 (P51114 2-132 limits assumed, species assumed): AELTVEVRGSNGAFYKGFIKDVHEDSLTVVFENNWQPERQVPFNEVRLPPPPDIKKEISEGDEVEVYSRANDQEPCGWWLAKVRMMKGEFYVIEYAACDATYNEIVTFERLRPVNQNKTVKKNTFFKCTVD
Procedure: as §1, §2, §3, §4, §5

RBBP1 = experiment: Temperature shift assay (non-BRD reader domains); type: binding; settings: 10µM compound
Procedure: as §1, §2, §3, §4, §5

TDRD3 = TDRD3 (Homo sapiens, UniProt Q9H7E2); experiment: Temperature shift assay (non-BRD reader domains); type: binding; settings: 10µM compound
Chain of TDRD3 (Q9H7E2 555-615 limits assumed, species assumed): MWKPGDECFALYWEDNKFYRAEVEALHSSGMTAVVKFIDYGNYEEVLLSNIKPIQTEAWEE
Procedure: as §1, §2, §3, §4, §5

WDR5 = WDR5 (Homo sapiens, UniProt P61964); experiment: Temperature shift assay (non-BRD reader domains); type: binding; settings: 10µM compound
Procedure: as §1, §2, §3, §4, §5

[1] = read-out: KD (BROMOscan), sheet prints no unit (nM)
[2] = KD (BROMOscan), sheet prints no unit (nM)

Cc1noc(C)c1-c1ccc2c(c1)nc(CCc1ccccc1)n2CCN1CCOCC1 [CBP30-298]
Kd (ATAD2A; BROMOscan Gene Symbol ATAD2A): > 150000 nM | Kd (ATAD2A; [1]): > 30000 nM | Kd (BAZ2B; BROMOscan Gene Symbol BAZ2B): > 50000 nM | Kd (BAZ2B; [1]): > 30000 nM | Kd (BRD3(1); BROMOscan Gene Symbol BRD3(1)): 0.96 µM | Kd (BRD3(2); BROMOscan Gene Symbol BRD3(2)): 1.6 µM | Kd (BRD4(1); BROMOscan Gene Symbol BRD4(1)): 0.52 µM | Kd (BRD4(2); BROMOscan Gene Symbol BRD4(2)): 2.7 µM | Kd (BRD9; BROMOscan Gene Symbol BRD9): 12 µM | Kd (BRPF1; BROMOscan Gene Symbol BRPF1): 18 µM | Kd (CREBBP; BROMOscan Gene Symbol CREBBP): 0.14 µM | Kd (TAF1(2); BROMOscan Gene Symbol TAF1(2)): 5.8 µM

CCCS(=O)(=O)c1nc(NC2CC2)cc(-c2ccc3c(ccn3C3CC(C)(C)NC(C)(C)C3)c2)n1 [NVS-CECR2-1]
Kd (ATAD2A): > 30000 nM | Kd (BAZ2B): > 30000 nM | Kd (BRD2(1,2)): 16 µM | Kd (BRD3(1)): > 30 µM | Kd (BRD3(2)): > 30 µM | Kd (BRD4(1)): 21 µM | Kd (BRD4(1,2)): 12 µM | Kd (BRD4(2)): 5.7 µM | Kd (BRD4(fl)): 13 µM | Kd (BRD9): 2.1 µM | Kd (BRDT(1,2)): 14 µM | Kd (BRPF1): 3.5 µM | Kd (CREBBP): > 30 µM | Kd (GCN5L2): > 30000 nM | Kd (SMARCA2): > 30000 nM | Kd (TAF1(2)): 2.1 µM

O=C(O)c1ccccc1O [Salicylic Acid]
Kd (BAZ2B; KD, BAZ2B): > 1.4e+07 nM | Kd (BRD2(1,2)): 7300 µM | Kd (BRD4(1)): > 14000 µM | Kd (BRD4(1,2)): > 14000 µM | Kd (BRD4(2)): > 14000 µM | Kd (BRD4(fl)): > 14000 µM | Kd (BRD9; KD, BRD9): > 14000 µM | Kd (BRDT(1,2); KD, BRDT(1,2)): 6100 µM | Kd (BRPF1; KD, BRPF1): 4200 µM | Kd (CREBBP; KD, CREBBP): > 14000 µM | Kd (GCN5L2; KD, GCN5L2): > 1.4e+07 nM | Kd (SMARCA2; KD, SMARCA2): 250000 nM | Kd (TAF1(2)): > 14000 µM

Cc1cc2c(cc1N1C(=O)c3cccc4c(CCCO)ccc(c34)C1=O)n(C)c(=O)n2C [BAY-299]
Tm (C) 10µM, temperature shift (53BP1): 0.3 Kelvin | Tm (C) 10µM, temperature shift (BRPF3): 1.5 Kelvin | Tm (C) 10µM, temperature shift (FXR1): 0.8 Kelvin | Tm (C) 10µM, temperature shift (RBBP1): -1.0 Kelvin | Tm (C) 10µM, temperature shift (TDRD3): -1.4 Kelvin | Tm (C) 10µM, temperature shift (WDR5): 0.2 Kelvin

CCCOc1ccn2c(C(C)=O)cc(-c3ccccc3S(C)(=O)=O)c2c1 [GSK2801]
Kd (ATAD2A; [2]): > 30000 nM | Kd (ATAD2A; KD, BROMOscan Gene Symbol ATAD2A): > 100000 nM | Kd (BRD2(1,2)): 19 µM | Kd (BRD3(1); KD, BROMOscan Gene Symbol BRD3(1)): 34 µM | Kd (BRD3(2); KD, BROMOscan Gene Symbol BRD3(2)): 13 µM | Kd (BRD4(1)): 74 µM | Kd (BRD4(1,2)): 65 µM | Kd (BRD4(2)): 29 µM | Kd (BRD4(fl)): 41 µM | Kd (BRD9; KD, BROMOscan Gene Symbol BRD9): 0.12 µM | Kd (BRDT(1,2); KD, BROMOscan Gene Symbol BRDT(1,2)): 52 µM | Kd (BRPF1; KD, BROMOscan Gene Symbol BRPF1): 14 µM | Kd (CREBBP; KD, BROMOscan Gene Symbol CREBBP): 21 µM | Kd (GCN5L2; [2]): > 30000 nM | Kd (GCN5L2; KD, BROMOscan Gene Symbol GCN5L2): > 100000 nM | Kd (SMARCA2; [2]): > 30000 nM | Kd (SMARCA2; KD, BROMOscan Gene Symbol SMARCA2): > 100000 nM | Kd (TAF1(2)): 1.4 µM
